Test results reported in article PMC9166766 (Experimental & Molecular Medicine, 2022).
No end group written: not given here.

How the values were obtained:
[1] = test system: Jurkat T cells (PMA and ionomycin-induced gene expression); test: mRNA sequencing of activated Jurkat T cells; assay type: cell-based, human; conditions: P+I 8 h
Protocol: We then extracted RNA from these cells. Construction of the cDNA library and next-generation sequencing was performed at LAS (Gimpo, Korea). We sequenced all samples on an Illumina NextSeq 500 system with 75 paired-end reads. For the RNA sequencing analysis, reads for each sample were aligned to the human genome (GRCh37/hg19 genome assembly) using STAR 2.4.0.1[25] with default settings. We used HOMER tools to quantify and normalize the defined genes in RefSeq transcripts. FPKM normalized genes were hierarchically clustered using Cluster3.0[26]. We visualized refined data with Java Treeview (http://jtreeview.sourceforge.net). We conducted gene ontology analysis of each cluster using the DAVID web tool (https://david.ncifcrf.gov). Finally, we visualized the expression levels of target genes using the Integrative Genomics Viewer (http://software.broadinstitute.org/software/igv). The raw data were submitted to the NCBI Gene Expression Omnibus under accession number GSE185561.
Fig. 3 The CABIN1 peptide inhibits T-cell activation. a Heatmap of altered genes affected by FK506 treatment or CABIN1 peptide expression upon T-cell activation. b Gene Ontology analysis of cluster III. c mRNA expression levels of genes included in cluster III. d qRT-PCR data of genes in c. The experiment was independently repeated at least three times, and the data are presented as the mean ± standard deviation. Statistical differences were determined using two-tailed Student’s t-test. *p < 0.05, **p < 0.01, ***p < 0.001, NC negative control.

[2] = test system: Jurkat T cells (T-cell activation gene mRNA); test: Real-time quantitative PCR of activated Jurkat T cells; assay type: cell-based; conditions: PMA and ionomycin
Text: We collected Jurkat T cells with QIAzol Lysis Reagent (Qiagen) to extract total RNA. We reverse transcribed cDNAs from isolated RNA using AMV Reverse Transcriptase and random hexamers. We performed real-time quantitative PCR for each cDNA using TB Green® Premix Ex Taq™ (TaKaRa, Kusatsu, Japan) on a CFX Connect Real-time PCR Detection System (Bio-Rad, Hercules, CA, USA) and normalized the expression to that of 18 S rRNA or GAPDH.

NFATC2 dephosphorylation = test: NFAT mobility shifting assay in Jurkat T cells; assay type: cell-based; conditions: HA-mCherry-tagged peptides, PMA and ionomycin 2 h, n = 7
Protocol: Jurkat T cells expressing GST-tagged peptides were treated with PMA and ionomycin for activation. […] For dephosphorylation of NFATC2, Jurkat T cells were treated with PMA and ionomycin for 2 h. c Hyper- and hypophosphorylated NFATC2 of b was measured using ImageJ, and the hypo/hyper ratio was calculated (n = 7). d Snapshot images of the activated Jurkat T cells expressing the indicated peptides and tNFATC2 were obtained using confocal microscopy. The expression and localization of peptides and tNFATC2 are shown as mCherry (red) and EGFP (green), respectively. Nuclei were stained with Hoechst (blue). Scale bar, 50 μm e Nuclear-localized tNFATC2 was measured by calculating the colocalization ratio between Hoechst (M1) and EGFP (M2). […] Statistical differences were determined using a two-tailed Student’s t-test (a, c) or one-way ANOVA (e). ***p < 0.001, NC negative control.

## CABIN1-L-1-2: 10 amino acids from proline 2146 to proline 2155 of full-length CABIN1; expressed GST-, GAL4 DBD- or HA-mCherry-tagged (PEITVTPPTP; also: expressed GST-, GAL4 DBD- or HA-mCherry-tagged, end not given here)
[1]; NC 1.497, NC_P+I 26.809
  PDGFA expression: 8.169 FPKM
[1]; NC 1.659, NC_P+I 9.467
  PHACTR2 expression: 2.791 FPKM
[1]; NC 1.702, NC_P+I 5.834
  CABP1 expression: 1.689 FPKM
[1]; NC 1.84, NC_P+I 36.298
  POU2AF1 expression: 2.971 FPKM
[1]; NC 2.079, NC_P+I 12.391
  SPRY1 expression: 4.901 FPKM
[1]; NC 2.283, NC_P+I 12.861
  GFOD1 expression: 6.312 FPKM
[1]; NC 2.356, NC_P+I 7.198
  DSTYK expression: 3.595 FPKM
[1]; NC 2.395, NC_P+I 6.813
  FMNL2 expression: 3.019 FPKM
[1]; NC 2.492, NC_P+I 11.633
  ADORA2A expression: 1.475 FPKM
[1]; NC 2.525, NC_P+I 27.462
  CD27 expression: 3.4 FPKM
[1]; NC 2.597, NC_P+I 31.683
  TNFRSF4 expression: 11.916 FPKM
[1]; NC 2.654, NC_P+I 20.219
  REL expression: 5.699 FPKM
[1]; NC 2.788, NC_P+I 26.566
  JAK2 expression: 8.45 FPKM
[1]; NC 2.89, NC_P+I 28.699
  LRRC8B expression: 4.298 FPKM
[1]; NC 3.008, NC_P+I 8.759
  NPDC1 expression: 5.64 FPKM
[1]; NC 3.088, NC_P+I 14.958
  CD27-AS1 expression: 4.613 FPKM
[1]; NC 3.315, NC_P+I 14.15
  CST7 expression: 3.175 FPKM
[1]; NC 3.351, NC_P+I 128.498
  TAGAP expression: 8.731 FPKM
[1]; NC 3.587, NC_P+I 39.451
  CD55 expression: 12.082 FPKM
[1]; NC 3.595, NC_P+I 10.378
  GTDC1 expression: 5.144 FPKM
[1]; NC 3.84, NC_P+I 14.865
  KCNK5 expression: 4.904 FPKM
[1]; NC 4.114, NC_P+I 11.118
  MYO1D expression: 5.995 FPKM
[1]; NC 4.125, NC_P+I 19.889
  RDH10 expression: 5.524 FPKM
[1]; NC 4.149, NC_P+I 17.216
  COL27A1 expression: 5.729 FPKM
[1]; NC 4.432, NC_P+I 14.807
  PLK3 expression: 7.036 FPKM
[1]; NC 4.511, NC_P+I 15.287
  NFATC1 expression: 3.916 FPKM
[1]; NC 4.678, NC_P+I 18.37
  ASAP1 expression: 9.052 FPKM
[1]; NC 5.451, NC_P+I 21.464
  GRK5 expression: 8.975 FPKM
[1]; NC 5.477, NC_P+I 33.545
  CCDC64 expression: 11.039 FPKM
[1]; NC 5.727, NC_P+I 30.239
  ATG14 expression: 11.252 FPKM
[1]; NC 5.755, NC_P+I 16.085
  PELI1 expression: 8.465 FPKM
[1]; NC 6.146, NC_P+I 31.337
  ARHGEF3 expression: 8.674 FPKM
[1]; NC 6.444, NC_P+I 49.019
  PKIA expression: 18.138 FPKM
[1]; NC 7.304, NC_P+I 33.466
  LTBP4 expression: 9.568 FPKM
[1]; NC 8.064, NC_P+I 31.61
  LAMP3 expression: 9.828 FPKM
[1]; NC 8.344, NC_P+I 24
  LAX1 expression: 7.578 FPKM
[1]; NC 8.928, NC_P+I 45.38
  PTPN22 expression: 5.119 FPKM
[1]; NC 9.566, NC_P+I 50.97
  VAMP1 expression: 14.752 FPKM
[1]; NC 10.319, NC_P+I 76.622
  NINJ1 expression: 54.452 FPKM
[1]; NC 10.828, NC_P+I 36.893
  KCNK1 expression: 13.139 FPKM
[1]; NC 10.97, NC_P+I 49.481
  CD97 expression: 21.496 FPKM
[1]; NC 11.735, NC_P+I 48.015
  FBXO34 expression: 18.386 FPKM
[1]; NC 11.844, NC_P+I 35.808
  TBC1D20 expression: 18.427 FPKM
[1]; NC 12.409, NC_P+I 50.527
  MIR6775 expression: 21.57 FPKM
[1]; NC 14.395, NC_P+I 39.056
  AGK expression: 14.306 FPKM
[1]; NC 14.671, NC_P+I 58.084
  FYN expression: 15.512 FPKM
[1]; NC 17.553, NC_P+I 62.894
  MIR6821 expression: 25.116 FPKM
[1]; NC 19.638, NC_P+I 54.615
  NDFIP1 expression: 24.432 FPKM
[1]; NC 20.739, NC_P+I 73.749
  TBC1D4 expression: 13.191 FPKM
[1]; NC 21.676, NC_P+I 144.057
  MAP2K3 expression: 43.237 FPKM
[1]; NC 22.163, NC_P+I 77.092
  PTPN6 expression: 20.806 FPKM
[1]; NC 25.643, NC_P+I 101.352
  FXYD5 expression: 42.856 FPKM
[1]; NC 31.375, NC_P+I 113.956
  BCL2L1 expression: 41.852 FPKM
[1]; NC 33.172, NC_P+I 129.395
  ATP6V1B2 expression: 60.661 FPKM
[1]; NC 37.434, NC_P+I 180.382
  PIM3 expression: 72.895 FPKM
[1]; NC 58.328, NC_P+I 188.301
  PPIF expression: 106.533 FPKM
[2]; Supplementary Fig. 5a, b
  NINJ1 and ZP4 expression upon T-cell activation: unaffected
[2]; at least three repeats
  RNA levels of T-cell activation genes (qRT-PCR) vs VIVIT peptide: reduced the RNA levels of these genes more efficiently than the VIVIT peptide
NFATC2 dephosphorylation
  NFATC2 dephosphorylation / band shift: significantly inhibited the NFATC2 band shift
